From PMC5053523, “In Vitro Antibacterial Activity of Rhodanine Derivatives against Pathogenic Clinical Isolates” (PLoS ONE, 2016)
In brackets after ≈: the same amount, converted by molar mass. Read-outs that look alike come from different tables or passages of the source.

Columns and labels:
Escherichia coli Δ acrAB = assay: MIC against E. coli 1411 and AcrAB efflux pump deficient E. coli SM1411Δ acrAB; format: cell-based
Procedure: (§1) The MIC of the rhodanines and control antibiotics, in the presence of a sub-inhibitory concentration of colistin or polymixin B nonapeptide (PMBN), against Gram-negative bacteria was evaluated as described before. The antibacterial activity of the rhodanines was further investigated against E. coli SM1411Δ acrAB, a strain that is deficient in the multidrug-resistant AcrAB efflux pump, as described before.

Klebsiella pneumoniae = assay: MIC with/without sub-MIC colistin, Klebsiella pneumoniae; format: cell-based
How it was run: (§2)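 Compounds plus sub-inhibitory colistin or PMBN; MIC against Gram-negatives, with control antibiotics in parallel.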

Escherichia coli O157:H7 [1] = assay: MIC with/without PMBN, Escherichia coli O157:H7; format: cell-based
How it was run: as §2

Acinetobacter baumannii [2] = assay: MIC with/without PMBN, Acinetobacter baumannii; format: cell-based
How it was run: as §2

Salmonella Typhimurium [3] = assay: MIC with/without sub-MIC colistin, Salmonella Typhimurium; format: cell-based
How it was run: as §2

B. cereus = assay: Broth microdilution MIC/MBC, B. cereus; format: cell-based; details: Bacillus cereus; for MBC: read-out: MBC; for MIC: read-out: MIC
Description: The broth microdilution technique was used, followed by subculturing on agar plates that were rhodanine—free.

Pseudomonas aeruginosa [4] = assay: MIC with/without sub-MIC colistin, Pseudomonas aeruginosa; format: cell-based
How it was run: as §2

Bacillus Strains = assay: Broth microdilution MIC50/MIC90 and MIC range, Bacillus strains panel; format: cell-based, Bacillus spp.; details: 10 Bacillus strains
Description: The broth microdilution technique was used, followed by subculturing on agar plates that were rhodanine—free. […] The MICs reported represent the lowest concentration of each compound necessary to inhibit bacterial growth and the MBCs represent the lowest concentration required to reduce the initial bacterial inoculum by ≥ 99.9%.

MRSA USA300 = assay: MIC against MRSA USA300 with and without 4% human serum albumin; format: cell-based, Staphylococcus aureus; details: Staphylococcus aureus, read-out: MIC against MRSA USA300
How it was run: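 MIC measured in tryptic soy broth spiked with 4% HSA and without it, using CLSI broth microdilution on MRSA USA300. Value reported is the lowest concentration preventing bacterial growth.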

Acinetobacter baumannii [5] = assay: Broth microdilution MIC, Acinetobacter baumannii; format: cell-based
P. aeruginosa = assay: Broth microdilution MIC, P. aeruginosa; format: cell-based; details: Pseudomonas aeruginosa
K. pneumoniae = assay: Broth microdilution MIC, K. pneumoniae; format: cell-based
[6] = test system: vancomycin resistant enterococci (VRE) E. faecalis; assay: Broth microdilution MIC/MBC, VRE E. faecalis; format: cell-based; details: for MIC: read-out: MIC
Pseudomonas aeruginosa [7] = assay: MIC with/without PMBN, Pseudomonas aeruginosa; format: cell-based
How it was run: as §2

Escherichia coli O157:H7 [8] = assay: MIC with/without sub-MIC colistin, Escherichia coli O157:H7; format: cell-based
How it was run: as §2

[9] = test system: vancomycin resistant enterococci (VRE) E. faecium; assay: Broth microdilution MIC/MBC, VRE E. faecium; format: cell-based; details: for MIC: read-out: MIC
Salmonella Typhimurium [10] = assay: MIC with/without PMBN, Salmonella Typhimurium; format: cell-based
Procedure: as §1

[11] = Salmonella enterica, ATCC 700720 / TYPHIMURIUM
[12] = NRS201, B. cereus NRS 201 NR-2488
[13] = E. faecalis NR31972 Strain SF 28073
[14] = E. faecium HM 968 Strain ERV102
[15] = E. faecium NR31914 Strain E0120
[16] = E. faecium Patient #1–1 NR-31903

Compound `O=C(O)[C@H](Cc1ccccc1)N1C(=O)/C(=C/c2cccc(-c3ccc(Cl)c(Cl)c3)c2)SC1=S` [Rh 2] has an MIC (Escherichia coli Δ acrAB; E.coli 1411) of over 64 µM, an MIC (Escherichia coli Δ acrAB; E.coli 1411 SM (Δ acrAB, AcrAB efflux pump deficient)) of over 64 µM and an MIC (Klebsiella pneumoniae; Klebsiella pneumoniae ATCC BAA 2146, colistin (+) […]) of over 64 µM. The MIC (Klebsiella pneumoniae; Klebsiella pneumoniae, BAA2146) was over 128 µM, the MIC (Escherichia coli O157:H7 [1]; Escherichia coli O157:H7 ATCC 35150, PMBN (+) 4 μg/mL, read-out: MIC) was 8 µM (≈ 4.12 µg/mL) and the MIC (Escherichia coli O157:H7 [1]; Escherichia coli O157:H7 ATCC 700728, PMBN (+) 4 μg/mL, read-out: MIC) was over 64 µM. It also gave an MIC (Escherichia coli O157:H7 [1]; Escherichia coli, ATCC35150) of over 256 µM, an MIC (Escherichia coli O157:H7 [1]; Escherichia coli, ATCC700728) of over 128 µM and an MIC (Acinetobacter baumannii [2]; Acinetobacter baumannii ATCC BAA747, PMBN (+) 4 μg/mL, read-out: MIC) of over 64 µM. The MIC (Acinetobacter baumannii [2]; Acinetobacter baumannii ATCC BAA19606, PMBN (+) 4 μg/mL, read-out: MIC) was over 64 µM, the MIC (Acinetobacter baumannii [2]; Acinetobacter baumannii, ATCCBAA747) was over 128 µM and the MIC (Acinetobacter baumannii [2]; Acinetobacter baumannii, ATCCBAA19606) was over 128 µM. For the same compound, the MIC (Salmonella Typhimurium [3]; Salmonella Typhimurium ATCC 700720, colistin (+) […], read-out: MIC) was over 64 µM, the MIC (Salmonella Typhimurium [3]; [11]) was over 128 µM and the MBC (B. cereus; B. cereus BAG1O-2 NR-28582) was 4 µM (≈ 2.06 µg/mL). It also gave an MIC (B. cereus; B. cereus BAG1O-2 NR-28582) of 4 µM (≈ 2.06 µg/mL), an MBC (B. cereus; B. cereus BAG1X1-1 NR-28575) of 2 µM (≈ 1.03 µg/mL) and an MIC (B. cereus; B. cereus BAG1X1-1 NR-28575) of 2 µM (≈ 1.03 µg/mL). For the same compound, the MBC (B. cereus; B. cereus BAG1X2-1 NR-28578) was 4 µM (≈ 2.06 µg/mL), the MIC (B. cereus; B. cereus BAG1X2-1 NR-28578) was 2 µM (≈ 1.03 µg/mL) and the MBC (B. cereus; B. cereus G9241 NR-9564) was 4 µM (≈ 2.06 µg/mL). For the same compound, the MIC (B. cereus; B. cereus G9241 NR-9564) was 4 µM (≈ 2.06 µg/mL), the MBC (B. cereus; B. cereus VD014 NR-22141) was 2 µM (≈ 1.03 µg/mL) and the MIC (B. cereus; B. cereus VD014 NR-22141) was 2 µM (≈ 1.03 µg/mL). For the same compound, the MBC (B. cereus; B. cereus VD115 NR-22148) was 4 µM (≈ 2.06 µg/mL), the MIC (B. cereus; B. cereus VD115 NR-22148) was 4 µM (≈ 2.06 µg/mL) and the MBC (B. cereus; B. cereus VD148 NR-22150) was 2 µM (≈ 1.03 µg/mL). The MIC (B. cereus; B. cereus VD148 NR-22150) was 2 µM (≈ 1.03 µg/mL), the MBC (B. cereus; [12]) was 4 µM (≈ 2.06 µg/mL) and the MIC (B. cereus; [12]) was 4 µM (≈ 2.06 µg/mL). For the same compound, the MIC (Pseudomonas aeruginosa [4]; Pseudomonas aeruginosa ATCC 921, colistin (+) […], read-out: MIC) was over 64 µM, the MIC (Pseudomonas aeruginosa [4]; Pseudomonas aeruginosa, ATCC921) was over 128 µM and the MIC50 (Bacillus Strains) was 2 µM (≈ 1.03 µg/mL). For the same compound, the MIC90 (Bacillus Strains) was 4 µM (≈ 2.06 µg/mL), the MIC (MRSA USA300; 24 h, Media TSB + 4% HSA) was over 64 µM and the MIC (MRSA USA300; Media TSB) was 4 µM (≈ 2.06 µg/mL). It also gave an MIC (Acinetobacter baumannii [5]; ATCC13345) of over 128 µM, an MIC (Acinetobacter baumannii [5]; ATCC17786) of over 128 µM and an MIC (P. aeruginosa; ATCC9721) of over 128 µM. It also gave an MIC (P. aeruginosa; ATCC15442) of over 128 µM, an MIC (K. pneumoniae; K. pneumoniae NR-15417) of over 128 µM and an MIC (K. pneumoniae; Klebsiella pneumoniae) of over 128 µM. It also gave an MBC ([6]; E. faecalis ERV103 HM-934) of 4 µM (≈ 2.06 µg/mL), an MIC ([6]; E. faecalis ERV103 HM-934) of 4 µM (≈ 2.06 µg/mL) and an MBC [6, 13] of 32 µM (≈ 16.5 µg/mL). It also gave an MIC [6, 13] of 4 µM (≈ 2.06 µg/mL), an MBC ([6]; E. faecalis R712 HM-335) of 4 µM (≈ 2.06 µg/mL) and an MIC ([6]; E. faecalis R712 HM-335) of 4 µM (≈ 2.06 µg/mL). The MBC ([6]; E. faecalis S613 HM-334) was 4 µM (≈ 2.06 µg/mL), the MIC ([6]; E. faecalis S613 HM-334) was 4 µM (≈ 2.06 µg/mL) and the MBC ([6]; E. faecalis TX0104 HM-201) was 4 µM (≈ 2.06 µg/mL). The MIC ([6]; E. faecalis TX0104 HM-201) was 4 µM (≈ 2.06 µg/mL), the MIC (Pseudomonas aeruginosa [7]; Pseudomonas aeruginosa ATCC 9721, PMBN (+) 4 μg/mL, read-out: MIC) was over 64 µM and the MIC (Pseudomonas aeruginosa [7]; Pseudomonas aeruginosa, ATCC9721) was over 128 µM. For the same compound, the MIC (Escherichia coli O157:H7 [8]; Escherichia coli O157:H7 ATCC 35150, colistin (+) […], read-out: MIC) was over 64 µM, the MIC (Escherichia coli O157:H7 [8]; Escherichia coli O157:H7 ATCC 700728, colistin (+) […], read-out: MIC) was over 64 µM and the MIC (Escherichia coli O157:H7 [8]; Escherichia coli, ATCC35150) was over 128 µM. For the same compound, the MIC (Escherichia coli O157:H7 [8]; Escherichia coli, ATCC700728) was over 128 µM, the MBC ([9]; E. faecium E417 HM-965) was 64 µM (≈ 32.9 µg/mL) and the MIC ([9]; E. faecium E417 HM-965) was 4 µM (≈ 2.06 µg/mL). It also gave an MBC ([9]; E. faecium E1071 NR-28978) of 64 µM (≈ 32.9 µg/mL), an MIC ([9]; E. faecium E1071 NR-28978) of 8 µM (≈ 4.12 µg/mL) and an MBC [9, 14] of 64 µM (≈ 32.9 µg/mL). It also gave an MIC [9, 14] of 4 µM (≈ 2.06 µg/mL), an MBC [9, 15] of 32 µM (≈ 16.5 µg/mL) and an MIC [9, 15] of 4 µM (≈ 2.06 µg/mL). It also gave an MBC [9, 16] of 64 µM (≈ 32.9 µg/mL), an MIC [9, 16] of 4 µM (≈ 2.06 µg/mL) and an MIC (Salmonella Typhimurium [10]; Salmonella Typhimurium ATCC 700720, PMBN (+) 4 μg/mL, read-out: MIC) of over 128 µM. It also gave an MIC (Salmonella Typhimurium [10]; [11]) of over 128 µM.
